The source of these data is paper PMC10382589, “In vitro and in vivo antiplasmodial evaluation of sugar-modified nucleoside analogues” (Scientific Reports, 2023).

The test system of series [1] is Mitochondrial membrane potential of the malaria parasites. Briefly: JC-1 mitochondrial membrane potential assay. It is filed as cell-based, Plasmodium falciparum. The settings on record: parasites treated with IC50 concentration for 3 h; untreated control 7.04 ± 1.30. The source says:
Mitochondrial membrane potential is a marker of mitochondria’s functional status. Modification in mitochondrial membrane potential leading to mitochondrial dysfunction triggers cell death[25],[26]. Mitochondrial dysfunction was detected by using membrane permeant JC-1 dye. JC-1 is a cationic probe, due to electronegative environment inside the functionally active mitochondria with high Δψm, it aggregates in energised mitochondria and gives red color fluorescence at 590 nm, but in case of low Δψm (depolarized state), JC-1 remain in monomeric form and gives green color fluorescence at […]. Decreased ratio of red/green fluorescence intensity of compound treated sample as compared to untreated control indicates depolarized mitochondrial membrane[27],[28]. The damage to the parasite's mitochondria after treatment with compounds 7, 16, 17, 18 and 1 was measured according to the method reported previously. Because of lipophilic nature of the JC-1, it is cell permeable and emits a green signal (525 nm) in the cytoplasm, but the high transmembrane potential of functional mitochondria causes it to aggregate and emit a red signal (590 nm). […]. Mitochondrial membrane potential of the malaria parasites was determined by using MitoProbe™ JC-1 assay as described previously. In brief, trophozoite stage parasites (10–12% parasitemia) were treated with IC50 concentration of compounds 7, 16, 17, 18 and 1 for 3 h at 37 °C in the CO2 incubator. Samples were washed with 1 × PBS by centrifugation at 500 × g for 2 min at RT. Freshly prepared JC-1 dye was added to each sample with working concentration of 5 µg/mL. Incubation was done for 30 min at 37 °C in a CO2 incubator. Cells were washed twice with 1 × PBS. Spectrofluorometer was used to observe mitochondrial membrane potential by measuring fluoroscence intensities from the parasite lysate at wavelength of excitation (520 nm) and emission (590 nm) respectively. In vivo cell imaging was done with the help of Olympus fluoview 3000 confocal microscopy. Live cell imaging was observed under a 100X objective (oil immersion) and band pass filter at 355–460 nm. Experiments were repeated thrice and only representative figures are shown (Fig. 6).

The subject of series [2] is human RBCs. Briefly: Hemolytic activity on human RBCs. It is filed as cell-based. The settings on record: 0.5-20 µM, 10% (v/v) RBC suspension, 1 h, absorbance at 415 nm. As for the experimental part: Effect of compounds on human RBCs was checked with the help of spectrophotometry by measuring the lysis of human red blood cells (hRBCs). Compounds were tested at 0.5, 1, 5, 10 and 20 μM concentrations with 10% (v/v) RBCs suspension for 1 h and observed the percentage of RBCs lysis by compounds 7, 16, 17, 18 and 1.
Human RBCs were from Rotary Blood Bank, Tughlakabad Institutional Area, New Delhi, India. Effect of compounds on RBCs was checked by hemolytic assay. In brief, RBCs suspension with 10% (v/v) washed with 1 × Phosphate-buffered saline (PBS) (pH 7.4) and again resuspended in 1 × PBS. RBCs suspension was incubated with compounds 7, 16, 17, 18 and 1 at different concentrations (0.5, 1, 5, 10 and 20 μM) for 1 h at 37 °C. Samples were centrifuged and supernatant was taken for absorbance at 415 nm. Triton X-100 with 1% (v/v) was used as a positive control. Experiment was done in triplicate.

Series [3] has as its system chloroquine resistant strain PfRKL-9. The experiment in a line: SYBR green I based fluorescence growth inhibition assay, PfRKL-9. It is filed as cell-based. The settings on record: Plasmodium falciparum, synchronized late trophozoite parasites, triplicate, mean ± SD, read-out: IC50 (µM) against PfRKL-9. How it is done: (§1) The percent growth inhibition of the parasites was evaluated by SYBR Green assay.
(§2) Pf3D7 and PfRKL-9 were cultured by following procedure reported by Trager and Jensen[33]. […] In order to examine the morphological changes in the parasite, a blood film must be prepared. A thin blood film was air-dried, fixed with methanol, and allowed to dry before staining. […] Light microscopy analysis was carried out to evaluate the inhibitory effect of compounds at different concentrations against Pf3D7 and PfRKL-9.
(§3) SYBR green I based fluorescence assay was performed to measure the growth inhibition effect of the 26 compounds and further dose dependent assay against Pf3D7, and PfRKL-9 (Indian field strain, source- NIMR, New Delhi, India) was carried out at different concentrations. In brief, Pf3D7 and PfRKL-9 parasitized erythrocytes (trophozoite stage with 1% parasitemia) were diluted with noninfected erythrocytes at a constant 2% hematocrit in culture medium. Parasitized erythrocytes were treated with different concentrations of compounds ranging from 1 µM to 10 µM, whereas DMSO worked as a control. Triplicate wells of parasitized erythrocytes treated with compounds were seeded in 96 well microtiter plate following incubation at 37 °C for one cycle of parasite growth. […] Growth inhibition (%) was calculated as follows: % Inhibition = [1 − % Parasitemia (Treatment)/% Parasitemia (Control)] *100. Data were expressed as mean ± SD.

Series [4] has as its system Pf3D7 chloroquine-sensitive strain. Briefly: SYBR green I based fluorescence growth inhibition assay, Pf3D7. It is filed as cell-based, Plasmodium falciparum. The note with it: for IC50: Plasmodium falciparum, chloroquine-sensitive strain, synchronized late trophozoite parasites, SYBR Green, triplicate, mean ± SD, read-out: IC50 (µM) against Pf3D7; for growth inhibition against Pf3D7 (in words): screen at 1 µM and 10 µM, vs untreated control (Fig. S1). As for the experimental part:
Growth of one intraerythrocytic cycle of Pf was monitored after treated with compounds whereas untreated parasites were considered as control.
as §1, §2
as §3, with “In brief, Pf3D7 and PfRKL-9 parasitized erythrocytes (trophozoite stage with 1% parasitemia) were diluted with noninfected erythrocytes at a constant 2% hematocrit in culture medium.” left out

Series [5] has as its system embryonic kidney cell lines, HEK-293. As for the experimental part:
Cytotoxicity against human embryonic kidney cell line (ATCC) was determined using MTT dye[35]. In order to measuring the cytotoxicity of the compounds we used MTT dye to detect live/dead cells. […] cells were stored at 37 °C, 5% CO2 in […] sterile culture flasks (Corning) in complete Dulbecco's Modified Eagle Medium (DMEM) culture medium (a) supplemented with 5% Fetal Bovine Serum (FBS), gentamicin ([…]), with changing the medium thrice a week. The monolayers were washed, counted, diluted in complete medium, distributed in 96-well microtiter plates (5000 cells/well), followed by incubation for another 24 h at 37 °C. The test compounds and DMSO were added in triplicate. After a 48 h incubation at 37 °C, the supernatant was removed and 100 µL of MTT solution in complete DMEM was added to each well, followed by 2 h incubation at 37 °C. The culture plates were read in a spectrophotometer (Tecan infinite M200, nanoquant, UK) with a 490 nm filter, and the cytotoxic concentrations were determined based on a dose response curve.

The subject of series [6] is P. berghei ANKA. The experiment in a line: In vivo antiplasmodial activity in P. berghei ANKA infected BALB/c mice. Details: species or system Plasmodium berghei ANKA. As for the experimental part:
In vivo antiplasmodial efficacy of 7 was assessed in P. berghei ANKA infected BALB/c mice model. Compound dose was given intra-peritoneal injections for seven days in a row. To check the parasitemia, thin blood smears were made from P. berghei ANKA infected mice for up to seven consecutive days. […] Compound 7 was able to effectively reduce the parasite load compared to a control group of untreated mice for seven consecutive days post infection.
To make relevant inferences, statistical analyses were carried out on the in vivo data using Graphpad Prism data sheets.
Antiplasmodial activity of hit compound 7 was investigated in mice model with the help of protocol described previously. Briefly, intra-peritoneal injection of 1 × 10^7 Plasmodium berghei ANKA infected erythrocytes diluted with sterile 1 × PBS was injected into mice. In each group five mice were taken. Thin smears were made from the tail blood of mice to check the infection. Post infection, P. berghei infected mice administered intra-peritoneally with compound 7 with the dose of 50 mg/kg body weight, daily for seven consecutive days post infection. Mice treated with 1xPBS were kept as vehicle control. […] Data were calculated and presented as percentage increase in the parasitemia. All animal experiments were carried out in accordance with the standard approved procedures. […]

Where [7] appears, read: HEK-293 cells, MTT, 48 h incubation.

Each structure is given as a SMILES string. “Also recorded” adds a separate entry of the source. Read-outs that look alike come from different tables or passages of the source.

Usually IC50 stands for the concentration needed to halve the response being measured. In the case of `CC(=O)N[C@@H]1[C@@H](OC(C)=O)[C@H](OC(C)=O)[C@@H](COC(C)=O)O[C@H]1SC[C@@H]1[C@@H](O[Si](C)(C)C(C)(C)C)[C@H](n2cc(C)c(=O)[nH]c2=O)O[C@@H]1CO[Si](C)(C)C(C)(C)C` [Compound 18, 1-[3’-Deoxy-3’-C-((2-acetamido-3,4,6-tri-O-acetyl-β-D-glucopyranosylthio)methyl)-2’,5’-di-O-(tert-butyldimethylsilyl)-β-D-xylofuranosyl]-5-methyluracil], the JC-1 red/green ratio in series [1] worked out at 5.53 ± 1.40. Also, the “lysis of human RBCs (in words)” value in series [2] is given as “no significant lysis”. Besides, the IC50 came out at 2.21 ± 1.3 µM in series [3] and 1.15 ± 1.5 µM in series [4]. In series [4], the “growth inhibition against Pf3D7 (in words)” value (“growth inhibition” below) is “significant growth inhibition in a dose dependent manner”. For the same compound, the “Cell survival (%) at 500 µM” value in series [5] (human, 48 h) is 60%.

With `Cc1cn([C@@H]2O[C@H](CN3C[C@@H](COC(c4ccccc4)(c4ccccc4)c4ccccc4)O[C@@H](n4ccc(=O)[nH]c4=O)C3)[C@H]3OC(C)(C)O[C@H]32)c(=O)[nH]c1=O` [Compound 1], the JC-1 red/green ratio in series [1] was 5.69 ± 0.70. The “lysis of human RBCs (in words)” value in series [2] is given as “no significant lysis”. In addition, the IC50 in series [3] is 1.83 ± 0.7 µM. In series [4], the half-inhibitory concentration (IC50) is 1.31 ± 1.1 µM and the “growth inhibition” value is on record as “significant growth inhibition in a dose dependent manner; also recorded: good/excellent inhibitory effect”. Further, in series [5] (setting [7]), the “Cell survival (%) at 500 µM” value was 45%.

As for `CC(=O)OC[C@H]1O[C@@H](SC[C@@H]2O[C@@H](n3cnc4c(NC(c5ccccc5)(c5ccccc5)c5ccccc5)ncnc43)[C@@H]3OC(C)(C)O[C@@H]32)[C@H](OC(C)=O)[C@@H](OC(C)=O)[C@@H]1OC(C)=O` [Compound 7, 1-[2’,3’-O-isopropylidene-5’-S-(2,3,4,6-tetra-O-acetyl-β-D-glucopyranosyl)-5’-thio-α-L-lyxofuranosyl]-N-trityl-adenine], in series [6] (50 mg/kg intra-peritoneal, seven days, control 25%), the “percentage parasitemia on the seventh day” value was 10%. Further, in series [6] (50 mg/kg, observed 21 days post-infection, control MST = 10 days), the “Mean survival time (MST)” value was 14 days. In series [1], the JC-1 red/green ratio is 5.26 ± 1.13. Also, in series [2], the “lysis of human RBCs (in words)” value is given as “no significant lysis”. In addition, the IC50 in series [3] amounted to 2.1 ± 1.3 µM; in series [4], 0.92 ± 1.8 µM. The “growth inhibition” value in series [4] is recorded as “significant growth inhibition in a dose dependent manner”. Further, the “Cell survival (%) at 500 µM” value in series [5] (setting [7]) was determined as 55%.

Regarding `CC(=O)OC[C@H]1O[C@@H](SC[C@@H]2[C@@H](O[Si](C)(C)C(C)(C)C)[C@H](n3ccc(=O)[nH]c3=O)O[C@@H]2CO[Si](C)(C)C(C)(C)C)[C@H](OC(C)=O)[C@@H](OC(C)=O)[C@H]1OC(C)=O` [Compound 16, 1-[3’-Deoxy-3’-C-(-2,3,4,6-tetra-O-acetyl-β-D-galactopyranosyl-sulfanylmethyl)-2’,5’-di-O-(tert-butyldimethylsilyl)-β-D-xylofuranosyl]-uracil], the JC-1 red/green ratio in series [1] is on record as 4.98 ± 1.77. The “lysis of human RBCs (in words)” value in series [2] is listed as “no significant lysis”. Besides, the IC50 in series [3] worked out at 9.55 ± 1.7 µM. Besides, in series [4], the IC50 turned out to be 1.78 ± 1.3 µM and the “growth inhibition” value was “significant growth inhibition in a dose dependent manner”. Moreover, the “Cell survival (%) at 500 µM” value in series [5] (human, 48 h) was found to be 52%.
